Laboratory results from patent US7217722B2 (Kirin Beer Kabushiki Kaisha, priority 2000, dated 2007).
Where two headings read alike, the source gives them in different places. Each block holds one compound with its values, some of them ahead of it.

Key:
[1] = biological target: Rho kinase (fused protein of bovine Rho kinase catalyst region and glutathione S-transferase) (Bos taurus, UniProt Q28021); assay: Rho kinase inhibitory activity (phosphorylation of S6 231–239 substrate, γ32P-ATP); assay type: biochemical; conditions: concentration inhibiting substrate phosphorylation by 50%
Rho kinase (fused protein of bovine Rho kinase catalyst region and glutathione S-transferase), sequence (Q28021 92-354 limits assumed): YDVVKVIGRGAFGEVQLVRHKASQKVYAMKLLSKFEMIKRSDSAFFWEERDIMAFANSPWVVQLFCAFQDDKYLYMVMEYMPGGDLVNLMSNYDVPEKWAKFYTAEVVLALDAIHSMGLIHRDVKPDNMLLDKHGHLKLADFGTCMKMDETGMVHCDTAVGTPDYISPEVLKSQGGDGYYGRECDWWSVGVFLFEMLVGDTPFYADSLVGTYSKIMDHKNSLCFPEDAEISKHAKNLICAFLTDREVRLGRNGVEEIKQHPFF
Procedure: This permits the substrate to be labeled with the radioisotope.
Thereafter, the substrate was adsorbed to a filter paper. ATP was washed away with a phosphoric acid solution, and the amount of the phosphorylated substrate was then measured with a liquid scintillation counter.

[2] = test system: spontaneously hypertensive male rats (SHR); assay: Antihypertensive activity in spontaneously hypertensive rats; assay type: in vivo; conditions: Rattus norvegicus, po, 30 mg/kg oral, mean ± SEM of 3 to 4 SHRs, read-out: Blood pressure depression, %
Procedure: This test was carried out as follows. A test compound was dissolved in purified water, or alternatively the test compound was suspended in a 5% aqueous sodium carboxymethylcellulose solution. The solution or the suspension was forcibly administered into the gaster of SHR through an oral probe. The systolic pressure of SHR was measured with a bloodless sphygmometer (BP-98A, Softron Co.) immediately before the administration of the test compound and 3 to 4 hr after the administration of the test compound or 6 to 7 hr after the administration of the test compound. The percentage of blood pressure depression was calculated by the following equation: Antihypertensive activity (%)={(blood pressure before administration of test compound−blood pressure after administration of test compound)/blood pressure before administration of test compound}×100
Each compound was administered at 30 mg/kg, and the antihypertensive activity (%) was expressed in terms of the mean value of 3 to 4 SHRs and SEM (standard error of the mean).
For data with *, the blood pressure was measured 6 to 7 hr after the administration of the test compound, and, for data with no marks, the blood pressure was measured 3 to 4 hr after the administration of the test compound.

[3] = test system: Human-derived histiocyte lymphoma (U937/CCR2); assay: Leukocyte migration inhibitory activity (MCP-1 induced migration, CHEMOTAXICELL); assay type: cell-based; conditions: Homo sapiens, U-937, 1 h, U937/CCR2, MCP-1, 1 hr, read-out: Migration inhibition (%) ± SEM; for inhibition at 0.3 µM: test compound 0.3 μM; for inhibition at 1 µM: test compound 1 μM
Procedure: Human-derived histiocyte lymphoma (U937/CCR2), in which mouse-derived CCR2 had been highly expressed, was suspended in a 0.1% BSA-containing RPMI 1640 medium, to which a test compound had been added (5×10^6/ml), and the suspension was incubated for 20 min. A chemical solution (500 μl) (0.1% BSA-containing RPMI 1640 medium DMSO 1%), to which an MCP-1 ligand (1 μM) and the test compound had been added, was added to a 24-well plate. CHEMOTAXICELL was put thereon, and 200 μl of the cell suspension was added to the top layer, followed by migration under 5% carbon dioxide at 37° C. for one hr. The number of cells, which had migrated to the lower chamber, was counted with a particle count analyzer (CDA-500, SYSMEX CORPORATION), and the percentage migration inhibition was calculated by the following equation; Migration inhibition (%)={1−(number of migrated cells in the presence of test compound/number of migrated cells in the absence of test compound)}×100

[4] = test system: anti-GBM nephritis model WKY rats; assay: Albuminuria amelioration activity for anti-GBM nephritis model using WKY rats; assay type: in vivo, rat; conditions: 24 hr urine, control group 840.4 ± 82.2
Procedure: Anti-GBM antibody produced by immunizing domestic rabbits with a rat-derived GBM fraction was caudointravenously administered to WKY male rats of 9 weeks old to induce nephritis. […] During 24 hr from two weeks after the administration of the antibody, urine was collected, and the protein level of urine was measured to observe albuminuria amelioration activity.

[5] = test system: anti-GBM nephritis model S.D. rats; assay: Albuminuria amelioration activity for anti-GBM nephritis model using S.D. rats; assay type: in vivo, rat; conditions: oral 30 mg/kg twice daily, urine 0-24 hr after antibody, control group 794.2 ± 113.2
Procedure: Anti-GBM antibody produced by immunizing domestic rabbits with a rat-derived GBM fraction was caudointravenously administered to S.D. male rats of 8 weeks old to induce nephritis. Immediately after the administration of the antibody and six hr after the administration of the antibody, the compound of Example 300 was orally administered at 30 mg/kg. Urine was collected in a period between immediately after the administration of the antibody and 24 hr after the administration of the antibody, and the protein level of urine was measured to observe albuminuria amelioration activity.

[6] = systolic pressure 3 to 4 hr after administration
[7] = systolic pressure 6 to 7 hr after administration (data with *)

SMILES: c1ccc(CN2CCCC(Nc3ccc4[nH]ncc4c3)C2)cc1 (stereo not drawn) [Example 21]
IC50 [1]: 20 nM
inhibition in vivo at 30 mg/kg [2, 6]: 37 ± 2.5%

SMILES: c1ccc(CN2CCC(Nc3ccc4[nH]ncc4c3)CC2)cc1 [Example 126, N-(1-benzyl-4-piperidyl)-N-(1H-5-indazolyl)-amine]
inhibition at 30 µM ([3]; test compound 30 μM): 49.1 ± 4.6%
inhibition in vivo at 30 mg/kg [2, 6]: 18 ± 3.5%

IC50 [1]: 16 nM
SMILES: Fc1ccc(CN2CCCC(Nc3ccc4[nH]ncc4c3)C2)cc1 (stereo not drawn) [Example 164, N-[1-(4-fluorobenzyl)-3-piperidyl]-N-(1H-5-indazolyl)amine]
inhibition in vivo at 30 mg/kg [2, 6]: 35 ± 4.7%

SMILES: O=C(NCCF)C(c1ccccc1)N1CCCC(Nc2ccc3[nH]ncc3c2)C1 (stereo not drawn) [Example 227, N1-(2-fluoroethyl)-2-[3-(1H-5-indazolylamino)piperidino]-2-phenylacetamide]
inhibition at 3 µM ([3]; test compound 3 μM): 100.3 ± 0.5%
inhibition in vivo at 30 mg/kg [2, 6]: 22.2 ± 7.4%

SMILES: FCCN[C@H]1CC[C@H](Nc2ccc3[nH]ncc3c2)CC1 [Example 246 (anti), N1-(2-Fluoroethyl)-N4-(1H-5-indazolyl)-1,4-cyclohexanediamine]
inhibition in vivo at 30 mg/kg [2, 6]: 51.4 ± 0.9%

SMILES: FCCN[C@H]1CC[C@@H](Nc2ccc3[nH]ncc3c2)CC1 [Example 246 (syn), N1-(2-Fluoroethyl)-N4-(1H-5-indazolyl)-1,4-cyclohexanediamine]
inhibition in vivo at 30 mg/kg [2, 6]: 37.2 ± 11.7%

SMILES: FCCNC1CCC(Nc2ccc3[nH]ncc3c2)CC1 (stereo not drawn) [Example 246, N1-(2-fluoroethyl)-N4-(1H-5-indazolyl)-1,4-cyclohexanediamine]
inhibition at 0.3 µM [3]: 41.9 ± 15.4%
Protein level of urine (mg/kg/day) SEM ([4]; 25 mg/liter together with drinking water for two weeks): 220.2 ± 17.7 mg/kg/day

SMILES: c1cc2[nH]ncc2cc1N[C@H]1CC[C@@H](NC2CC2)CC1 [Example 247 (syn), N1-Cyclopropyl-N4-(1H-5-indazolyl)-1,4-cyclohexanediamine]
inhibition in vivo at 30 mg/kg [2, 6]: 43.3 ± 1.2%

SMILES: N[C@H]1CC[C@H](Nc2ccc3[nH]ncc3c2)CC1 [Example 248 (anti), N1-(1H-5-Indazolyl)-1,4-cyclohexanediamine]
inhibition in vivo at 30 mg/kg [2, 6]: 18.8 ± 8%

SMILES: CCCN[C@H]1CC[C@@H](Nc2cccc3cnccc23)CC1 [Example 260 (syn)]
inhibition at 1 µM [3]: 56.5 ± 14.9%
inhibition in vivo at 30 mg/kg [2, 6]: 19.6 ± 10.5%

SMILES: FCCN[C@H]1CC[C@H](Nc2cccc3cnccc23)CC1 [Example 261 (anti), N1-(2-Fluoroethyl)-N4-(5-isoquinolyl)-1,4-cyclohexanediamine]
inhibition in vivo at 30 mg/kg [2, 6]: 47.3 ± 3.6%

SMILES: FCCN[C@H]1CC[C@@H](Nc2cccc3cnccc23)CC1 [Example 261 (syn), N1-(2-Fluoroethyl)-N4-(5-isoquinolyl)-1,4-cyclohexanediamine]
inhibition at 0.3 µM [3]: 24.2 ± 3.9%
inhibition at 1 µM [3]: 59.4 ± 10.4%
inhibition in vivo at 30 mg/kg [2, 6]: 46.4 ± 4.8%

SMILES: FC(F)(F)CCCN1CCCC(Nc2cccc3cnccc23)C1 (stereo not drawn) [Example 273, N-(5-isoquinolyl)-N-[1-(4,4,4-trifluorobutyl)-3-piperidyl]amine]
inhibition in vivo at 30 mg/kg [2, 6]: 30.4 ± 7.3%

SMILES: CCCN1CCC(Nc2ccc3[nH]ncc3c2)CC1 [Example 286, N-(1H-5-indazolyl)-N-(1-propyl-4-piperidyl)-amine]
inhibition in vivo at 30 mg/kg [2, 6]: 23.6 ± 8.6%

SMILES: c1cc2[nH]ncc2cc1NC1CCN(CC2CC2)CC1 [Example 287, N-[1-(cyclopropylmethyl)-4-piperidyl]-N-(1H-5-indazolyl)amine]
inhibition in vivo at 30 mg/kg [2, 6]: 24.4 ± 6.8%

SMILES: FCCCN1CCC(Nc2ccc3[nH]ncc3c2)CC1 [Example 289, N-[1-(3-fluoropropyl)-4-piperidyl]-N-(1H-5-indazolyl)amine]
inhibition in vivo at 30 mg/kg [2, 6]: 30.8 ± 5.7%

SMILES: FC(F)(F)CCN1CCC(Nc2ccc3[nH]ncc3c2)CC1 [Example 290, N-(1H-5-indazolyl)-N-[1-(3,3,3-trifluoropropyl)-4-piperidyl]amine]
inhibition in vivo at 30 mg/kg [2, 6]: 17.2 ± 2.9%

SMILES: FC(F)(F)c1ccc(CN2CCCC(Nc3ccc4[nH]ncc4c3)C2)cc1 (stereo not drawn) [Example 298, N-(1H-5-indazolyl)-N-{1-[4-(trifluoromethyl)-benzyl]-3-piperidyl}amine]
inhibition at 0.3 µM [3]: 15.7 ± 9.9%
inhibition in vivo at 30 mg/kg [2, 7]: 18.9 ± 3.1%

SMILES: Fc1ccc(CN2CCCC(Nc3ccc4[nH]ncc4c3)C2)cc1F (stereo not drawn) [Example 300, N-[1-(3,4-difluorobenzyl)-3-piperidyl)-N-(1H-5-indazolyl)amine]
inhibition at 0.3 µM [3]: 81.9 ± 11.9%
Protein level of urine (mg/kg/day) ± SEM [5]: 437.1 ± 95.9 mg/kg/day
Protein level of urine (mg/kg/day) SEM ([4]; oral 30 mg/kg twice daily for two weeks): 602.2 ± 47.3 mg/kg/day
inhibition in vivo at 30 mg/kg [2, 7]: 24.1 ± 3.8%

SMILES: CCCN1CCC(Nc2cccc3cnccc23)CC1 [Example 318, N-(5-isoquinolyl)-N-(1-propyl-4-piperidyl)-amine]
inhibition in vivo at 30 mg/kg [2, 6]: 22.7 ± 5.1%

SMILES: FCCCN1CCC(Nc2cccc3cnccc23)CC1 [Example 322, N-[1-(3-fluoropropyl)-4-piperidyl]-N-(5-isoquinolyl)amine]
inhibition in vivo at 30 mg/kg [2, 6]: 41.4 ± 7.4%
